Reference: ChEMBL document CHEMBL1126661, “Oxidation chemistry of the endogenous central nervous system alkaloid salsolinol-1-carboxylic acid” (J Med Chem, 1993)

Test system: Mus musculus
Assay: Compound was evaluated for its lethal dose (LD50) by dissolving in 5 microL of isotonic saline and injected intracranially in mice which resulted in the death of 50% of the treated animals within 1 hour
Type: ADME, organism-based
Settings: in vivo, other

Work on `CC1=NCCc2c1cc(O)c(O)c2O` yielded an LD50 of 38.9 µg.
`CC1=NCCc2cc(O)c(O)cc21` showed an LD50 of 31.1 µg.
